Laboratory results reported in ChEMBL document CHEMBL5528068, “Structure-Activity Relationship Studies and Optimization of 4-Hydroxypyridones as GPR84 Agonists” (J Med Chem, 2024).
Converted amounts (≈) assume the structure as drawn.

Legend:
[1] = molecular target: T1, G-protein coupled receptor 84 (Homo sapiens, UniProt Q9NQS5); test: Agonist activity at GPR84 (unknown origin) expressed in HTLA cells assessed as beta-arrestin recruitment incubated for 1 day by PRESTO-Tango assay
[2] = molecular target: T1, G-protein coupled receptor 84; test: Agonist activity at GPR84 (unknown origin) expressed in Flp-In-T-REx-293 cells transfected with GalphaI incubated for 1 hr by Topcount scintillation counting method
[3] = molecular target: T1, G-protein coupled receptor 84; test: Agonist activity at GPR84 (unknown origin) expressed in doxycycline induced Flp-In-T-REx-293 cells transfected with GalphaI preincubated for 15 mins in presence of IBMX followed by forskolin stimulation for 45 mins by time-resolved fluorescence assay
[4] = molecular target: T1, G-protein coupled receptor 84; test: Agonist activity at GPR84 (unknown origin) expressed in HEK293T cells expressing beta-arrestin 2-nanoluciferase incubated for 5 mins by beta-arrestin recruitment based BRET assay
[5] = molecular target: T1, G-protein coupled receptor 84; test: Displacement of [3H]140 from GPR84 (unknown origin) expressed in Flp-In-T-REx-293 cells transfected with GalphaI incubated for 1 hr by liquid scintillation spectrometry analysis
[6] = Dissociation constant, pKa of compound by UV spectrophotometric analysis
[7] = Solubility in PBS at pH 7.4 incubated for 24 hrs by HPLC analysis

T1 sequence (Q9NQS5 whole entry): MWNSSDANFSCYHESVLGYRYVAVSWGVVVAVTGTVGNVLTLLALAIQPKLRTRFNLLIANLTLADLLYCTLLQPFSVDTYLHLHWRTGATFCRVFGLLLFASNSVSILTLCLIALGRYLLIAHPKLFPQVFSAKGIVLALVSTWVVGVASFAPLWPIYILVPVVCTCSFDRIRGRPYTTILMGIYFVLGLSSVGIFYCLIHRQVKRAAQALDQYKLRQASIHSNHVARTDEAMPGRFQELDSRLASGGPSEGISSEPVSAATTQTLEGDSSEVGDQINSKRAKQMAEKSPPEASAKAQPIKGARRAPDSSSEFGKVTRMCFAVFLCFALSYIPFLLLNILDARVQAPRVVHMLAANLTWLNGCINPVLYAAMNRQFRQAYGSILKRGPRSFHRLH

SMILES	EC50 [1] [nM]	EC50 [3] [nM]	also measured
CC(C)(C)c1ccc(CCc2cc(O)cc(=O)[nH]2)cc1	2.95	–	–
Cc1cccc(CCc2cc(O)cc(=O)[nH]2)c1	389	–	–
CCCCCCCCCCCc1cc(O)cc(=O)[nH]1	0.427	–	–
O=c1cc(O)cc(CCc2ccc3c(c2)Cc2ccccc2-3)[nH]1	5010	1660	EC50 [2]: 525 nM
CCOc1ccc(CCc2cc(O)cc(=O)[nH]2)cc1	44.7	15.8	EC50 [2]: 33.1 nM; EC50 [4]: 7240 nM
O=c1cc(O)cc(-c2ccc(Oc3ccccc3)cc2)[nH]1	0.912	1.26	EC50 [2]: 4.27 nM; Ki [5]: 14.8 nM; EC50 [4]: 209 nM
CCCCCCCc1cc(O)cc(O)n1	0.0468	–	pKa [6]: 6.68
CCCc1ccc(CCc2cc(O)cc(=O)[nH]2)cc1	0.302	0.331	EC50 [2]: 1.2 nM; Ki [5]: 13.5 nM; EC50 [4]: 214 nM
CCCCCCCCc1cc(O)cc(O)n1	0.0275	–	–
CCCCCCCCNc1cc(O)cc(=O)[nH]1	3.31	–	–
O=c1cc(O)cc(CCc2ccc(OC(F)(F)F)cc2)[nH]1	11	–	–
O=c1cc(O)cc(CCc2cccc(-c3ccccc3)c2)[nH]1	4270	–	–
Cc1nnc(-c2ccc(-c3cc(O)cc(=O)[nH]3)cc2)o1	11700	–	–
CCCCCCCOc1cc(O)cc(=O)[nH]1	1.32	–	–
CCCCCCCC#Cc1cc(O)cc(=O)[nH]1	5.75	14.5	EC50 [2]: 24 nM; EC50 [4]: 550 nM
CCCc1ccc(COc2cc(O)cc(=O)[nH]2)cc1	3.24	–	–
CCc1ccc(CCc2cc(O)cc(=O)[nH]2)cc1	4.47	–	–
O=c1cc(O)cc(-c2ccc(Oc3cncnc3)nc2)[nH]1	102	–	–
CCCCCCCCCc1cc(O)cc(O)n1	–	–	solubility at 24 h [7]: 10 µM (≈ 2.37 µg/mL)
O=C1c2ccccc2C(=O)N1CCCCc1cc(O)cc(=O)[nH]1	3240	–	–
CCCCCCCCCCc1cc(O)cc(=O)[nH]1	0.24	–	–
Cc1ccc(CCc2cc(O)cc(=O)[nH]2)cc1	13.8	–	–
CCCC(=O)NCCCCc1cc(O)cc(=O)[nH]1	23400	–	–
CCCCc1ccc(-c2cc(O)cc(O)n2)cc1	25.7	18.2	EC50 [2]: 63.1 nM; pKa [6]: 8.04; EC50 [4]: 1620 nM
O=c1cc(O)cc(CCCOc2ccccc2)[nH]1	4.17	–	–
O=c1cc(O)cc(-c2ccc(Oc3ccccc3)nc2)[nH]1	1.05	15.8	Ki [5]: 13.8 nM; EC50 [4]: 263 nM
CCCCCc1ccc(-c2cc(O)cc(=O)[nH]2)cc1	12.6	19.5	EC50 [2]: 26.3 nM; EC50 [4]: 2630 nM
CC(C)Cc1ccc(CCc2cc(O)cc(=O)[nH]2)cc1	12.6	6.76	EC50 [2]: 12 nM; EC50 [4]: 912 nM
O=c1cc(O)cc(CCc2ccccc2)[nH]1	–	–	pKa [6]: 6.6
